One assay concerns the target T1, Human Mer (Homo sapiens, UniProt Q12866).
T1 construct: Human Mer (residues R557-E882 with H628Q and R794A, 0.7 nM); purchased Eurofins Pharma Discovery Services UK Limited (KinaseProfiler service)
T1 sequence (Q12866 557-882 limits assumed): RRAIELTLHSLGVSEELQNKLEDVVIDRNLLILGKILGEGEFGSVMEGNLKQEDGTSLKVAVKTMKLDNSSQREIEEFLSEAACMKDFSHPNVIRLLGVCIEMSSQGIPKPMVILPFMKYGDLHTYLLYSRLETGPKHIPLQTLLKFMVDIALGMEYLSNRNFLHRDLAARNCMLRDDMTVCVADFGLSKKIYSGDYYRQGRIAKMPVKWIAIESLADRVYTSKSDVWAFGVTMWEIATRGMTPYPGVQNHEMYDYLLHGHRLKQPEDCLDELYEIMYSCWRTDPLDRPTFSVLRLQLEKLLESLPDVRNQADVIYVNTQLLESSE
The assay can be described thus: Human Mer kinase assay (33P-phosphoryl transfer radiometric, KinaseProfiler). The note with it: biochemical activity; 10 μM ATP. On the procedure:
Kinase activity and compound inhibition were investigated using the ^33P-Phosphoryl transfer radiometric kinase assay, performed using the KinaseProfiler™ service of Eurofins Pharma Discovery Services UK Limited. Dose-response experiments were performed using nine compound concentrations in a 96-well microtiter plate. For each assay, all compounds were prepared to a 50× final assay concentration (50 μM) in 100% DMSO, then diluted in a half-log series, with the final top concentration at 1 μM. This working stock of the compound was added to the assay well as the first component in the reaction, followed by the remaining components as detailed in the following assay protocols below. The positive control wells (100% kinase activity) contain all components of the reaction including 2% DMSO (control for solvent effects), except the compound of interest. Blank wells contain all components of the reaction, with the reference inhibitor, staurosporine. This reference compound was used to abolish kinase activity and generated the 0% kinase activity base-line. IC50 values were calculated by nonlinear regression analysis using the sigmoidal dose-response (variable slope) curve fit on XLFit version 5.3 (ID Business Solutions).
Human Mer (residues R557-E882 with H628Q and R794A, 0.7 nM) was incubated with 8 mM MOPS pH 7.0, 0.2 mM EDTA, 30 mM NaCl, 250 μM GGMEDIYFEFMGGKKK, 10 mM magnesium acetate and 10 μM [y-^33P-ATP]. The reaction was initiated by the addition of the Mg/ATP mix. After incubation for 40 minutes at room temperature, the reaction was stopped by the addition of phosphoric acid to a concentration of 0.5%. A reaction aliquot of 10 μL was then spotted onto a P30 filtermat and washed four times for 4 minutes in 0.425% phosphoric acid and once in methanol prior to drying and scintillation counting. Incorporated ^33P was measured using the Wallac Microbeta scintillation counter (Perkin Elmer).

The next assay addresses KDR (Homo sapiens, UniProt P35968). In words: KDR autophosphorylation ELISA in HUVEC cells. The following applies: cellular activity, VEGF165-stimulated, phospho-KDR ELISA. The class given is cell-based. The arrangement: endogenous in cells; host or cells: HUVEC (Lonza #C2519A). The method, boiled down:
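Read-out: phospho-KDR ELISA on cell lysates, quantified against a phospho-KDR standard, normalised to VEGF-stimulated DMSO (100%) and unstimulated (0%) wells, IC50 by 4-parameter fit. Cells were 24 h serum-starved HUVEC given compound for 1 h, then 100 ng/mL VEGF165 for 5 min.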
Background: ELISA stands for enzyme-linked immunosorbent assay.

The target of the next assay is Met (Homo sapiens, UniProt P08581). The assay can be described thus: Met autophosphorylation ELISA in PC-3 cells. The class given is cell-based. The arrangement: endogenous in cells; host or cells: PC-3 prostate cancer cells (ATCC #CRL-1435). The note with it: cellular activity, HGF-stimulated, phospho-Met ELISA, read-out: c-Met IC50. The method, boiled down:
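PC-3 cells serum-starved 3 h, treated 1 h with 8-point compound series (0.3% DMSO), then stimulated with 100 ng/mL human HGF for 10 min. Lysate phospho-Met (panTyr) measured by sandwich ELISA; IC50 from 4-parameter logistic fit against DMSO and reference-inhibitor controls.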

Usually IC50 stands for the concentration needed to halve the response being measured.

Chain of KDR (P35968 20-1356): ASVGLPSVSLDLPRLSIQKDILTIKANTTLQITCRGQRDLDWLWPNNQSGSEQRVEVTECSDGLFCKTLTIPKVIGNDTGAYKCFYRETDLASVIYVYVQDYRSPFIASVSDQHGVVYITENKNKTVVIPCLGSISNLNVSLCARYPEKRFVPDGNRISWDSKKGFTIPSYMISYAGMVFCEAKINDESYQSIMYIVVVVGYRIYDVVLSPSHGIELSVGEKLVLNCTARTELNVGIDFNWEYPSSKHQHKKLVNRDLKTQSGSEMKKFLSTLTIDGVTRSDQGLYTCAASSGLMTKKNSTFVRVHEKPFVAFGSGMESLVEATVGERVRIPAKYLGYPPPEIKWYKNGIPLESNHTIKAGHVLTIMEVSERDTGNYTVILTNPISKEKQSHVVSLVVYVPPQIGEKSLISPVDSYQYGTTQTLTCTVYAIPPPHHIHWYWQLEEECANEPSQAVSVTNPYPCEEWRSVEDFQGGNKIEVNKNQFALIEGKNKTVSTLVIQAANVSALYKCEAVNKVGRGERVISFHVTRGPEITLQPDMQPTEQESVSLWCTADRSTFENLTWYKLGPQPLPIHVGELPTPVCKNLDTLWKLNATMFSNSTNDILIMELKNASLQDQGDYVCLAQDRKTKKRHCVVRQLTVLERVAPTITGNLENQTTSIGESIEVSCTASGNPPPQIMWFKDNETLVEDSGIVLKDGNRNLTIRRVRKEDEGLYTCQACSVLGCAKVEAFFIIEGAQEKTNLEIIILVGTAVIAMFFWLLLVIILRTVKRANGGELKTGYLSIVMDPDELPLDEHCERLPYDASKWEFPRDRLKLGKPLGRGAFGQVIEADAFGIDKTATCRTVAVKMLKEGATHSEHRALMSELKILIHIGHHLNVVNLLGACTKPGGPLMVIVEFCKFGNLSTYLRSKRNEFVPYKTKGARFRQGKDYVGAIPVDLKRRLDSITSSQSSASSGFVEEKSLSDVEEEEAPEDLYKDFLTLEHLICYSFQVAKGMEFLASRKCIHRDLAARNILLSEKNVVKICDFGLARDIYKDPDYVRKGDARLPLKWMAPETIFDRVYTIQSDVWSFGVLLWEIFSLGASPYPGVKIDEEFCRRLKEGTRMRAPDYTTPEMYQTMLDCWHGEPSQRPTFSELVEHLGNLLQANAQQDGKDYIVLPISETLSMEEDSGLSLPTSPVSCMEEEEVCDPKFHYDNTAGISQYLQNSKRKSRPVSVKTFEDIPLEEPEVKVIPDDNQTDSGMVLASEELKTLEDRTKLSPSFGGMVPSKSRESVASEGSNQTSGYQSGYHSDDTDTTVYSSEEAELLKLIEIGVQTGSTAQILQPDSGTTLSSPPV
Chain of Met (P08581 25-1390): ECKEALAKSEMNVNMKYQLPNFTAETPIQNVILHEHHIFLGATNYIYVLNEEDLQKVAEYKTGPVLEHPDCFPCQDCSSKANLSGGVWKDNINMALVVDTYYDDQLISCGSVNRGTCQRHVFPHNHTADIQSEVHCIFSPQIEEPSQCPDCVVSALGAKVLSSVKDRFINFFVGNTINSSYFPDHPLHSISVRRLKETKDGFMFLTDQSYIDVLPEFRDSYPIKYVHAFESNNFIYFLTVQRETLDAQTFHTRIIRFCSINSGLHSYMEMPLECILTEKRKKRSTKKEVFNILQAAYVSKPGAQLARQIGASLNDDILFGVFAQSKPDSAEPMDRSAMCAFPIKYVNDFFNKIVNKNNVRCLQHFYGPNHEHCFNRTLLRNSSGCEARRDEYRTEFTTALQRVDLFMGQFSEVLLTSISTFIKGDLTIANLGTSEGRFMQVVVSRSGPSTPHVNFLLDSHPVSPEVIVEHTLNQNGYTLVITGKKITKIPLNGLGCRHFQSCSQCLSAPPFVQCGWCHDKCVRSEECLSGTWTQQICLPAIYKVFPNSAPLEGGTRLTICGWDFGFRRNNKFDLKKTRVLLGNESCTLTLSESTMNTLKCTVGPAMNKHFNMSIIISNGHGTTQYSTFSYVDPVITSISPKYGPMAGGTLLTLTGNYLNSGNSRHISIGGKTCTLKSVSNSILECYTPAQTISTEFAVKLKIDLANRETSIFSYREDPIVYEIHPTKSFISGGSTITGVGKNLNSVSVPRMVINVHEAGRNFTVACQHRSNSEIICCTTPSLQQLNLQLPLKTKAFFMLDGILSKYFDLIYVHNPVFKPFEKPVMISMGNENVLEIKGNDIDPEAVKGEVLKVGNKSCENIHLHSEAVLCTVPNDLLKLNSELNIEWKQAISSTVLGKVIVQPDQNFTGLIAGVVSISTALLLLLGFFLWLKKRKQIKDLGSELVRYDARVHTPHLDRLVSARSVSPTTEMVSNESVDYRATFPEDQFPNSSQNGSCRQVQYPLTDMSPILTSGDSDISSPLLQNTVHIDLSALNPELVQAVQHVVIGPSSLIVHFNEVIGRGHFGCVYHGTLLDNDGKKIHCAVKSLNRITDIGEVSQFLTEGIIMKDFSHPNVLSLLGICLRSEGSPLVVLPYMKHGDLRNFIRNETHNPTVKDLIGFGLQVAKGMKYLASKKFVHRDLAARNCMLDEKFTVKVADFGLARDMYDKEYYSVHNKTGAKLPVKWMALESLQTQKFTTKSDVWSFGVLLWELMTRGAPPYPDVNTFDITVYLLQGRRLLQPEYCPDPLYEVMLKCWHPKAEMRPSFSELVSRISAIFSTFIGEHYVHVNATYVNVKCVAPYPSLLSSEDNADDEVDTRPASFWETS

`CC(=O)N1CCC(n2cc(-c3ccc4c(Oc5ccc(NC(=O)C6(C(=O)Nc7ccc(F)cc7)CC6)cc5)ccnc4c3)cn2)CC1` [Compound 62, 1-N-[4-[7-[1-(1-Acetylpiperidin-4-yl)pyrazol-4-yl]quinolin-4-yl]oxyphenyl]-1-N′-(4-fluorophenyl)cyclopropane-1,1-dicarboxamide]: the values for the 50% inhibitory concentration (IC50) against Human Mer, against KDR and at Met were at most 10 nM, at most 10 nM and 10 to 100 nM, respectively.

Take `O=C(Nc1ccc(F)cc1)C1(C(=O)Nc2ccc(Oc3ccnc4cc(-c5cnoc5)ccc34)cc2)CC1` [Compound 57, 1-N′-(4-Fluorophenyl)-1-N-[4-[7-(1,2-oxazol-4-yl)quinolin-4-yl]oxyphenyl]cyclopropane-1,1-dicarboxamide]: the half-inhibitory concentration (IC50) against Human Mer is at most 10 nM; against KDR, 10 to 100 nM; at Met, 10 to 100 nM.

For `CS(=O)(=O)n1cc(-c2ccc3c(Oc4ccc(NC(=O)C5(C(=O)Nc6ccc(F)cc6)CC5)cc4)ccnc3c2)cn1` [Compound 79, 1-N′-(4-Fluorophenyl)-1-N-[4-[7-(1-methylsulfonylpyrazol-4-yl)quinolin-4-yl]oxyphenyl]cyclopropane-1,1-dicarboxamide], the IC50 was at most 10 nM on Human Mer, at most 10 nM on KDR and 10 to 100 nM at Met.

In the case of `CC1Cc2cc(F)ccc2N1C(=O)C1(C(=O)Nc2ccc(Oc3ccnc4cc(-c5cnn(C)c5)ccc34)cc2)CC1` (stereo not drawn) [Compound 80, 1-(5-Fluoro-2-methyl-2,3-dihydroindole-1-carbonyl)-N-[4-[7-(1-methylpyrazol-4-yl)quinolin-4-yl]oxyphenyl]cyclopropane-1-carboxamide], the IC50 on Human Mer was 100 to 1000 nM; against KDR, over 300 nM; on Met it was 100 to 300 nM.

With `COc1cc2c(Oc3ccc(NC(=O)C4(C(=O)Nc5ccc(F)cc5)CC4)cc3)ccnc2cc1-c1cnn(C)c1` [Compound 76, 1-N′-(4-Fluorophenyl)-1-N-[4-[6-methoxy-7-(1-methylpyrazol-4-yl)quinolin-4-yl]oxyphenyl]cyclopropane-1,1-dicarboxamide], the IC50 on Human Mer is at most 10 nM; on KDR, 10 to 100 nM; at Met, 10 to 100 nM.

Consider `O=C(Nc1ccc(F)cc1)C1(C(=O)Nc2ccc(Oc3ccnc4cc(-c5cnn(CCF)c5)ccc34)cc2)CC1` [Compound 14, 1-N-[4-[7-[1-(2-Fluoroethyl)pyrazol-4-yl]quinolin-4-yl]oxyphenyl]-1-N′-(4-fluorophenyl)cyclopropane-1,1-dicarboxamide], for which the IC50 was at most 10 nM against Human Mer, 10 to 100 nM on KDR and at most 10 nM on Met.

For `Cc1noc(C)c1-c1ccc2c(Oc3ccc(NC(=O)C4(C(=O)Nc5ccc(F)cc5)CC4)cc3)ccnc2c1` [Compound 53, 1-N-[4-[7-(3,5-Dimethyl-1,2-oxazol-4-yl)quinolin-4-yl]oxyphenyl]-1-N′-(4-fluorophenyl)cyclopropane-1,1-dicarboxamide], the values for the IC50 against Human Mer, against KDR and on Met were 10 to 100 nM, 100 to 300 nM and 100 to 300 nM, respectively.

As to `Cc1cc2c(Oc3ccc(NC(=O)C4(C(=O)Nc5ccc(F)cc5)CC4)cc3)ccnc2cc1-c1cnn(C)c1` [Compound 78, 1-N′-(4-Fluorophenyl)-1-N-[4-[6-methyl-7-(1-methylpyrazol-4-yl)quinolin-4-yl]oxyphenyl]cyclopropane-1,1-dicarboxamide], the figures for the half-maximal inhibitory concentration (IC50) against Human Mer, against KDR and at Met were at most 10 nM, 10 to 100 nM and at most 10 nM, respectively.

Consider `O=C(Nc1ccc(F)cc1)C1(C(=O)Nc2ccc(Oc3ccnc4cc(-c5nnco5)ccc34)cc2)CC1` [Compound 73, 1-N′-(4-Fluorophenyl)-1-N-[4-[7-(1,3,4-oxadiazol-2-yl)quinolin-4-yl]oxyphenyl]cyclopropane-1,1-dicarboxamide], for which the IC50 is at most 10 nM against Human Mer, 10 to 100 nM at KDR and 10 to 100 nM on Met.

Regarding `O=C(Nc1ccc(F)cc1)C1(C(=O)Nc2ccc(Oc3ccnc4cc(C5CCNC5)ccc34)cc2)CC1` (stereo not drawn) [Compound 83, 1-N′-(4-Fluorophenyl)-1-N-[4-(7-pyrrolidin-3-ylquinolin-4-yl)oxyphenyl]cyclopropane-1,1-dicarboxamide], the figures for the IC50 against Human Mer, at KDR and on Met were at most 10 nM, 100 to 300 nM and 10 to 100 nM, respectively.

As for `C[Si](C)(C)C#Cc1ccc2c(Oc3ccc(NC(=O)C4(C(=O)Nc5ccc(F)cc5)CC4)cc3)ccnc2c1` [Compound 63, 1-N′-(4-Fluorophenyl)-1-N-[4-[7-(2-trimethylsilylethynyl)quinolin-4-yl]oxyphenyl]cyclopropane-1,1-dicarboxamide], the IC50 against Human Mer was 100 to 1000 nM; against KDR, over 300 nM; at Met it was over 300 nM.

Take `Cn1ccnc1-c1ccc2c(Oc3ccc(NC(=O)C4(C(=O)Nc5ccc(F)cc5)CC4)cc3)ccnc2c1` [Compound 75, 1-N′-(4-Fluorophenyl)-1-N-[4-[7-(1-methylimidazol-2-yl)quinolin-4-yl]oxyphenyl]cyclopropane-1,1-dicarboxamide]: the IC50 at Human Mer was at most 10 nM; at KDR, 10 to 100 nM; at Met, 10 to 100 nM.

On to `O=C(Nc1ccc(F)cc1)C1(C(=O)Nc2ccc(Oc3ccnc4cc(-c5cn[nH]c5)ccc34)cc2)CC1` [Compound 67, 1-N′-(4-Fluorophenyl)-1-N-[4-[7-(1H-pyrazol-4-yl)quinolin-4-yl]oxyphenyl]cyclopropane-1,1-dicarboxamide], for which the concentration for half-maximal inhibition (IC50) on Human Mer, at KDR and at Met was at most 10 nM throughout.

Consider `C#Cc1ccc2c(Oc3ccc(NC(=O)C4(C(=O)Nc5ccc(F)cc5)CC4)cc3)ccnc2c1` [Compound 64, 1-N-[4-(7-Ethynylquinolin-4-yl)oxyphenyl]-1-N′-(4-fluorophenyl)cyclopropane-1,1-dicarboxamide], for which the IC50 at Human Mer is 10 to 100 nM; at KDR, 100 to 300 nM; at Met, 100 to 300 nM.

On to `Cn1cnc(-c2ccc3c(Oc4ccc(NC(=O)C5(C(=O)Nc6ccc(F)cc6)CC5)cc4)ccnc3c2)c1` [Compound 69, 1-N′-(4-Fluorophenyl)-1-N-[4-[7-(1-methylimidazol-4-yl)quinolin-4-yl]oxyphenyl]cyclopropane-1,1-dicarboxamide], for which the IC50 on Human Mer, against KDR and on Met was at most 10 nM each time.

As for `O=C(Nc1ccc(F)cc1)C1(C(=O)Nc2ccc(Oc3ccnc4cc(-c5cnc[nH]5)ccc34)cc2)CC1` [Compound 72, 1-N′-(4-Fluorophenyl)-1-N-[4-[7-(1H-imidazol-5-yl)quinolin-4-yl]oxyphenyl]cyclopropane-1,1-dicarboxamide], the IC50 against Human Mer, against KDR and on Met was at most 10 nM each time.

Take `O=C(Nc1ccc(F)cc1)C1(C(=O)Nc2ccc(Oc3ccnc4cc(-c5ccn(C(F)F)n5)ccc34)cc2)CC1` [Compound 84, 1-N-[4-[7-[1-(Difluoromethyl)pyrazol-3-yl]quinolin-4-yl]oxyphenyl]-1-N′-(4-fluorophenyl)cyclopropane-1,1-dicarboxamide]: the 50% inhibitory concentration (IC50) is at most 10 nM on Human Mer, 10 to 100 nM against KDR and 10 to 100 nM on Met.

On to `O=C(Nc1ccc(F)cc1)C1(C(=O)Nc2ccc(Oc3ccnc4cc(-c5cnn(C6COC6)c5)ccc34)cc2)CC1` [Compound 24, 1-N′-(4-Fluorophenyl)-1-N-[4-[7-[1-(oxetan-3-yl)pyrazol-4-yl]quinolin-4-yl]oxyphenyl]cyclopropane-1,1-dicarboxamide], for which the half-inhibitory concentration (IC50) at Human Mer, at KDR and on Met was at most 10 nM each time.

The values are drawn from US12503438B2, “Compounds for the treatment of kinase-dependent disorders” (Exelixis, Inc., priority 2019, dated 2025).
